What all share (type): cell-based
For assay [1], the system named is spores of ATCC BBA1870 strain. Kind of assay: Inhibition of germination of C. difficile spores (MIC), strain ATCC BBA1870. The settings on record: Clostridioides difficile, ATCCBBA1870STRAIN, 1 h; strain 1870; sodium taurocholate as germinant, BHIS medium, 37° C., OD580 for 60 min; read-out: MIC (minimum concentration that completely inhibits spore germination). The method in brief: (§1)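 Germination was followed as the drop in OD580 over 60 min at 37° C in BHIS after adding sodium taurocholate to spores premixed with compound. Spores were first heat-activated (65° C, 30 min) and washed free of self-germinating spores. The inhibition rate was calculated against germinant and non-germinant controls.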

Assay [2] has as its system spores of ATCC 43255 strain. Nature of the assay: Inhibition of germination of C. difficile spores (MIC), strain ATCC 43255. The settings on record: Clostridioides difficile, ATCC43255, 1 h; strain 43255; sodium taurocholate as germinant, BHIS medium, 37° C., OD580 for 60 min; read-out: MIC (minimum concentration that completely inhibits spore germination). A digest of the protocol:
as §1

Assay [3] concerns spores of ATCC 630 strain. Kind of assay: Inhibition of germination of C. difficile spores (MIC), strain ATCC 630. The conditions noted are these: Clostridioides difficile, ATCC630, 1 h; strain 630; sodium taurocholate as germinant, BHIS medium, 37° C., OD580 for 60 min; read-out: MIC (minimum concentration that completely inhibits spore germination). The method in brief: as §1
The test system of assay [4] is various C. difficile spores. Kind of assay: Inhibition of germination of C. difficile spores, summary over the strains. The settings on record: Clostridioides difficile; Table 1, all strains. The procedure: According to a method disclosed in “The Journal of Infectious Diseases. 2013; 207: 1498-504”, spores of ATCC BBA1870, ATCC 43255 and ATCC 630 strains were obtained by culture and purification, and stored at 4° C.
Spore preparation: the C. difficile spores stored at 4° C. were heat-activated for 30 min at 65° C., centrifuged at 9,400 g for 2 min, and washed three times to remove any self-germinating spores.
Control drug: three cholic acid derivatives, a compound CamSA, a compound 20β (prepared by the method of “Journal of Medicinal Chemistry. 2017, 60 (8): 3451-3471”), and a compound 12a (prepared by the method of “Journal of Medicinal Chemistry. 2018, 61, 6759-6778”), were used as control drugs.
Compound preparation: the compound of the present disclosure, and the positive control drugs CamSA, 20β, and 12a were dissolved in DMSO, to prepare a stock solution with a concentration of 10 mM (prepared for immediate use).
The detection was conducted in a 96-well cell culture plate at a constant temperature of 37° C.; a final volume of each well of the 96-well plate was […] and a buffer was the BHIS medium; 150 μl of spores and drugs were added to the well in advance, and 50 μl of 4 mg/ml sodium taurocholate was added; OD580 was detected every 1 min immediately using a microplate reader, for continuously 60 min. A germination agent control group and a non-germination group were set up; after the detection, a final OD value of each well was compared with an initial value, and compared with the germination agent group to calculate a germination rate and an inhibition rate. A formula for the germination rate was:
Inhibition rate=100%−germination rate.

In brackets after ≈: the same amount, converted by molar mass. A value given as a limit tells only on which side of the number the result lay.

Consider `CC(NC(=O)C[C@@H](C)[C@H]1CC[C@H]2[C@@H]3C(=O)C[C@@H]4CC(=O)CC[C@]4(C)[C@H]3CC[C@]12C)c1ccc(Cl)s1` (stereo partly shown) [Compound I-32], for which the MIC in assay [1] was 0.5 µM (≈ 0.259 µg/mL); in assay [2], 0.5 µM (≈ 0.259 µg/mL); in assay [3] it was 0.5 µM (≈ 0.259 µg/mL); in assay [4], no more than 1 µM.
Consider `CCC(NC(=O)C[C@@H](C)[C@H]1CC[C@H]2[C@@H]3C(=O)C[C@@H]4CC(=O)CC[C@]4(C)[C@H]3CC[C@]12C)c1cccs1` (stereo partly shown) [Compound I-35], for which the MIC in assay [1] is 0.5 µM (≈ 0.249 µg/mL); in assay [2] it was 0.5 µM (≈ 0.249 µg/mL); in assay [3], 0.5 µM (≈ 0.249 µg/mL); in assay [4] it was no more than 1 µM.
In the case of `CC[C@@H](NC(=O)C[C@@H](C)[C@H]1CC[C@H]2[C@@H]3C(=O)C[C@@H]4CC(=O)CC[C@]4(C)[C@H]3CC[C@]12C)c1cccs1` [Compound I-37], the MIC in assay [1] is 0.25 µM (≈ 0.124 µg/mL); in assay [2], 0.25 µM (≈ 0.124 µg/mL); in assay [3], 0.25 µM (≈ 0.124 µg/mL); in assay [4], no more than 1 µM.
`CCCC(NC(=O)C[C@@H](C)[C@H]1CC[C@H]2[C@@H]3C(=O)C[C@@H]4CC(=O)CC[C@]4(C)[C@H]3CC[C@]12C)c1cccs1` (stereo partly shown) [Compound I-41]: the MIC in assay [1] is 0.5 µM (≈ 0.256 µg/mL); in assay [2], 0.5 µM (≈ 0.256 µg/mL); in assay [3] it was 0.5 µM (≈ 0.256 µg/mL); in assay [4], no more than 1 µM.
On to `C[C@H](CC(=O)NC(c1cccs1)C1CC1)[C@H]1CC[C@H]2[C@@H]3C(=O)C[C@@H]4CC(=O)CC[C@]4(C)[C@H]3CC[C@]12C` (stereo partly shown) [Compound I-48], for which the MIC in assay [1] was 0.5 µM (≈ 0.255 µg/mL); in assay [2] it was 0.5 µM (≈ 0.255 µg/mL); in assay [3] it was 0.5 µM (≈ 0.255 µg/mL); in assay [4], no more than 1 µM.
As to `C[C@H](CC(=O)N[C@@H](c1cccs1)C1CC1)[C@H]1CC[C@H]2[C@@H]3C(=O)C[C@@H]4CC(=O)CC[C@]4(C)[C@H]3CC[C@]12C` [Compound I-50], the MIC in assay [1] is 0.25 µM (≈ 0.127 µg/mL); in assay [2], 0.25 µM (≈ 0.127 µg/mL); in assay [3] it was 0.25 µM (≈ 0.127 µg/mL); in assay [4], no more than 1 µM.
On to `C[C@H](CC(=O)NC(c1ccc(Cl)s1)C1CC1)[C@H]1CC[C@H]2[C@@H]3C(=O)C[C@@H]4CC(=O)CC[C@]4(C)[C@H]3CC[C@]12C` (stereo partly shown) [Compound I-51], for which the MIC is 0.5 µM (≈ 0.272 µg/mL) in assay [1], 0.5 µM (≈ 0.272 µg/mL) in assay [2], 0.5 µM (≈ 0.272 µg/mL) in assay [3] and no more than 1 µM in assay [4].
`CC[C@@H](NC(=O)C[C@@H](C)[C@H]1CC[C@H]2[C@@H]3[C@H](OC(C)=O)CC4=CC(=O)C=C[C@]4(C)[C@H]3CC[C@]12C)c1ccc(Br)s1` [I-159 -1]: the MIC in assay [1], in assay [2] and in assay [3] was 0.5 µM (≈ 0.308 µg/mL) throughout.
`CC(=O)O[C@@H]1CC2=CC(=O)C=C[C@]2(C)[C@H]2CC[C@]3(C)[C@@H]([C@H](C)CC(=O)N[C@@H](c4ccc(Br)s4)C(C)C)CC[C@H]3[C@H]12` [I-160 -1]: the MIC in assay [1], in assay [2] and in assay [3] was 0.5 µM (≈ 0.315 µg/mL) each time.
Take `CC[C@@H](NC(=O)C[C@@H](C)[C@H]1CC[C@H]2[C@@H]3[C@H](OC(C)=O)CC4=CC(=O)C=C[C@]4(C)[C@H]3CC[C@]12C)c1ccc(Cl)s1` [I-161 -1]: the MIC came out at 0.5 µM (≈ 0.286 µg/mL) in assay [1], 0.5 µM (≈ 0.286 µg/mL) in assay [2] and 0.25 µM (≈ 0.143 µg/mL) in assay [3].
As for `CC(=O)O[C@@H]1CC2=CC(=O)C=C[C@]2(C)[C@H]2CC[C@]3(C)[C@@H]([C@H](C)CC(=O)N[C@@H](c4ccc(Cl)s4)C(C)C)CC[C@H]3[C@H]12` [I-162 -1], the MIC in assay [1] worked out at 0.25 µM (≈ 0.147 µg/mL); in assay [2] it was 0.5 µM (≈ 0.293 µg/mL); in assay [3] it was 0.5 µM (≈ 0.293 µg/mL).

The record behind these values is patent US20230135729A1, “COMPOUND WITH ANTI-SPORE ACTIVITY AND PHARMACEUTICAL COMPOSITION THEREOF” (priority 2020, published 2023).
